In patent publication US20240245793A1, “PSD-95 INHIBITORS AND USES THEREOF” (priority 2021, published 2024):
Where two headings read alike, the source gives them in different places.

Test system: HeLa cells stably expressing HaloGFP
Test: Chloroalkane penetration assay (CAPA), membrane permeability and cellular uptake
Format: cell-based
Source text: Since PSD-95 is located intracellularly, it is essential for any drug targeting PSD-95 to efficiently cross the cell membrane. To assess the cellular permeability and delivery to the cytosol of the compounds as defined herein, the cellular chloroalkane penetration assay (CAPA) may be used (Peraro et al. 2018). This assay takes advantage of a modified haloalkane dehalogenase designed to covalently bind chloroalkane (CA) molecules. A HeLa cell line expressing a fusion protein comprising a HaloTag, a green fluorescent protein (GFP) and a mitochondria-targeting peptide is used to report cytosolic delivery. The general format of the CAPA is a pulse-chase assay (Deprey & Kritzer, 2020). Cells expressing the HaloTag enzyme are incubated with CA-tagged peptides. When these CA-peptides penetrate the cell membrane and reach the cytosol, they will bind to and react with the HaloTag (pulse step). Following a washing step, the cells are incubated with a CA-tagged dye that quantitatively penetrates the cell membrane and reacts with remaining unreacted HaloTag sites (chase step). Flow cytometry is used to measure the fluorescence intensity of the cells and the measured fluorescence is inversely proportional to the amount of CA-peptides that reach the penetrated the cells and can thus be used to assess cytosolic delivery. The obtained data is commonly expressed as CP50 values, the concentration at which 50% cell penetration is observed. The CP50 value of a compound may be measured as described in example 4.
The membrane permeability of compounds 10 to 75 was determined in HeLa cells stably expressing HaloGFP exclusively located in the cytosol. Cells were seeded at a density of 40.000 cells/well one day prior to the experiment. After the growth media was aspirated and replaced by 100 μL of Opti-MEM, 25 μL of a prepared serial dilution of the ligand in Opti-MEM was added to the cells (constant DMSO concentration), and the plate was incubated for 4 h at 37° C. and 5% CO2. The contents of the wells were aspirated, and cells were washed with fresh Opti-MEM for 15 min. After aspiration of the wash, the cells were incubated with TAMRA-CA (5 μM) for 15 min. After aspiration of the chase solution, cells were washed with Opti-MEM for 30 min. Following removal of the wash, cells were trypsinized, resuspended in PBS (2% FBS), and analyzed using a benchtop flow cytometer. Using no ligand and no TAMRA-CA control well, the obtained fluorescence intensity data was normalized and plotted as dose-response curves. Reported CP50 values represent half-maximum red fluorescence which behaves inverse to cell penetration of the ligand.

For `CC[C@H](C)[C@H](NC(=O)CCOCCOCCN(CCOCCOCCC(=O)N[C@H](C(=O)N[C@@H](CCC(=O)O)C(=O)N[C@H](C(=O)N[C@@H](CC(=O)O)C(=O)N[C@H](C(=O)O)C(C)C)[C@@H](C)O)[C@@H](C)CC)C(=O)[C@H](C)NC(=O)[C@H](CC(C)C)NC(=O)[C@H](CCCCN)NC(=O)[C@H](CC(C)C)NC(=O)[C@H](C)NC(=O)[C@H](C)NC(=O)[C@H](CCCCN)NC(=O)[C@H](CC(C)C)NC(=O)[C@H](C)NC(=O)[C@H](CCCCN)NC(=O)[C@H](CC(C)C)NC(=O)[C@H](C)NC(=O)[C@H](CC(C)C)NC(=O)[C@H](CCCCN)NC(=O)[C@H](CC(C)C)NC(=O)[C@H](C)NC(=O)[C@H](CC(C)C)NC(=O)[C@H](CCCCN)NC(=O)CCC(=O)NCCOCCOCCCCCCCl)C(=O)N[C@@H](CCC(=O)O)C(=O)N[C@H](C(=O)N[C@@H](CC(=O)O)C(=O)N[C@H](C(=O)O)C(C)C)[C@@H](C)O` [Compound 55], the CP50 was 3.7 ± 0.3 µM.
`CC[C@H](C)[C@H](NC(=O)CCOCCOCCN(CCOCCOCCC(=O)N[C@H](C(=O)N[C@@H](CCC(=O)O)C(=O)N[C@H](C(=O)N[C@@H](CC(=O)O)C(=O)N[C@H](C(=O)O)C(C)C)[C@@H](C)O)[C@@H](C)CC)C(=O)[C@H](Cc1ccccc1)NC(=O)[C@H](CCC(N)=O)NC(=O)CNC(=O)[C@H](CCCNC(=N)N)NC(=O)[C@H](CC(C)C)NC(=O)[C@H](CC(C)C)NC(=O)[C@H](CCCNC(=N)N)NC(=O)[C@H](CC(C)C)NC(=O)[C@H](Cc1ccc(O)cc1)NC(=O)[C@@H](NC(=O)[C@H](CC(C)C)NC(=O)[C@@H]1CCCN1C(=O)CCC(=O)NCCOCCOCCCCCCCl)[C@@H](C)CC)C(=O)N[C@@H](CCC(=O)O)C(=O)N[C@H](C(=O)N[C@@H](CC(=O)O)C(=O)N[C@H](C(=O)O)C(C)C)[C@@H](C)O` [Compound 57] was tested, and the CP50 was 17.9 ± 0.3 µM.
`CC[C@@H](C)[C@@H](NC(=O)[C@@H](CC(C)C)NC(=O)[C@H]1CCCN1C(=O)CCC(=O)NCCOCCOCCCCCCCl)C(=O)N[C@H](Cc1ccc(O)cc1)C(=O)N[C@H](CC(C)C)C(=O)N[C@H](CCCNC(=N)N)C(=O)N[C@H](CC(C)C)C(=O)N[C@H](CC(C)C)C(=O)N[C@H](CCCNC(=N)N)C(=O)NCC(=O)N[C@H](CCC(N)=O)C(=O)N[C@H](Cc1ccccc1)C(=O)N(CCOCCOCCC(=O)N[C@H](C(=O)N[C@@H](CCC(=O)O)C(=O)N[C@H](C(=O)N[C@@H](CC(=O)O)C(=O)N[C@H](C(=O)O)C(C)C)[C@@H](C)O)[C@@H](C)CC)CCOCCOCCC(=O)N[C@H](C(=O)N[C@@H](CCC(=O)O)C(=O)N[C@H](C(=O)N[C@@H](CC(=O)O)C(=O)N[C@H](C(=O)O)C(C)C)[C@@H](C)O)[C@@H](C)CC` [Compound 59] showed a CP50 of 67.2 ± 5.3 µM.
`CC[C@H](C)[C@H](NC(=O)CCOCCOCCN(CCOCCOCCC(=O)N[C@H](C(=O)N[C@@H](CCC(=O)O)C(=O)N[C@H](C(=O)N[C@@H](CC(=O)O)C(=O)N[C@H](C(=O)O)C(C)C)[C@@H](C)O)[C@@H](C)CC)C(=O)[C@@H]1CC(=O)NC[C@H](NC(=O)CCC(=O)NCCOCCOCCCCCCCl)C(=O)N[C@@H](CCCCN)C(=O)N[C@@H](C)C(=O)N2CCC[C@H]2C(=O)N[C@@H](CCC(=O)O)C(=O)N[C@@H]([C@@H](C)O)C(=O)N[C@@H](C)C(=O)N[C@@H](CC(C)C)C(=O)N1)C(=O)N[C@@H](CCC(=O)O)C(=O)N[C@H](C(=O)N[C@@H](CC(=O)O)C(=O)N[C@H](C(=O)O)C(C)C)[C@@H](C)O` [Compound 61] gave a CP50 (CA-tagged NPEG4-(IETDV)2 with various CPP-tags, 4 h at 37° C., mean ± SEM (Table 11, FIG. 8)) of 13.2 ± 0.4 µM.
`CC[C@H](C)[C@H](NC(=O)CCOCCOCCN(CCOCCOCCC(=O)N[C@H](C(=O)N[C@@H](CCC(=O)O)C(=O)N[C@H](C(=O)N[C@@H](CC(=O)O)C(=O)N[C@H](C(=O)O)C(C)C)[C@@H](C)O)[C@@H](C)CC)C(=O)[C@H](CCCCNC(=O)CCC(=O)NCCOCCOCCCCCCCl)NC(=O)CCCNC(=O)CC[C@@H]1NC(=O)[C@@H](CCCNC(=N)N)NC(=O)[C@H](CCCNC(=N)N)NC(=O)[C@@H](CCCNC(=N)N)NC(=O)[C@H](CCCNC(=N)N)NC(=O)[C@H](Cc2ccc3ccccc3c2)NC(=O)[C@@H](Cc2ccccc2)NC(=O)[C@H](Cc2ccccc2)NC1=O)C(=O)N[C@@H](CCC(=O)O)C(=O)N[C@H](C(=O)N[C@@H](CC(=O)O)C(=O)N[C@H](C(=O)O)C(C)C)[C@@H](C)O` [Compound 63] gave a CP50 of 11.2 ± 0.7 µM.
In the case of `CC[C@H](C)[C@H](NC(=O)CCOCCOCCN(CCOCCOCCC(=O)N[C@H](C(=O)N[C@@H](CCC(=O)O)C(=O)N[C@H](C(=O)N[C@@H](CC(=O)O)C(=O)N[C@H](C(=O)O)C(C)C)[C@@H](C)O)[C@@H](C)CC)C(=O)[C@H](CCCNC(=N)N)NC(=O)[C@H](CCCNC(=N)N)NC(=O)[C@H](CCCNC(=N)N)NC(=O)[C@H](CCCNC(=N)N)NC(=O)[C@H](CCCNC(=N)N)NC(=O)[C@H](CCCNC(=N)N)NC(=O)[C@H](CCCNC(=N)N)NC(=O)CCC(=O)NCCOCCOCCCCCCCl)C(=O)N[C@@H](CCC(=O)O)C(=O)N[C@H](C(=O)N[C@@H](CC(=O)O)C(=O)N[C@H](C(=O)O)C(C)C)[C@@H](C)O` [Compound 64], the CP50 is reported as 1.66 ± 0.43 µM.
With `CC[C@H](C)[C@H](NC(=O)CCOCCOCCN(CCOCCOCCC(=O)N[C@H](C(=O)N[C@@H](CCC(=O)O)C(=O)N[C@H](C(=O)N[C@@H](CC(=O)O)C(=O)N[C@H](C(=O)O)C(C)C)[C@@H](C)O)[C@@H](C)CC)C(=O)[C@H](CCCNC(=N)N)NC(=O)[C@H](CCCNC(=N)N)NC(=O)[C@H](CCCNC(=N)N)NC(=O)[C@H](CCCNC(=N)N)NC(=O)[C@H](CCCNC(=N)N)NC(=O)CCC(=O)NCCOCCOCCCCCCCl)C(=O)N[C@@H](CCC(=O)O)C(=O)N[C@H](C(=O)N[C@@H](CC(=O)O)C(=O)N[C@H](C(=O)O)C(C)C)[C@@H](C)O` [Compound 65] the CP50 was 1.17 ± 0.37 µM.
`CC[C@H](C)[C@H](NC(=O)CCOCCOCCN(CCOCCOCCC(=O)N[C@H](C(=O)N[C@@H](CCC(=O)O)C(=O)N[C@H](C(=O)N[C@@H](CC(=O)O)C(=O)N[C@H](C(=O)O)C(C)C)[C@@H](C)O)[C@@H](C)CC)C(=O)[C@H](CCCNC(=N)N)NC(=O)[C@H](CCCNC(=N)N)NC(=O)[C@H](CCCNC(=N)N)NC(=O)CCC(=O)NCCOCCOCCCCCCCl)C(=O)N[C@@H](CCC(=O)O)C(=O)N[C@H](C(=O)N[C@@H](CC(=O)O)C(=O)N[C@H](C(=O)O)C(C)C)[C@@H](C)O` [Compound 66] was tested, and the CP50 was 3.71 ± 0.30 µM.
In the case of `CC(C)C[C@H](NC(=O)[C@@H](NC(=O)[C@H](CCC(=O)O)NC(=O)[C@H](CCCCN)NC(=O)CCOCCOCCN(CCOCCOCCC(=O)N[C@@H](CCCCN)C(=O)N[C@@H](CCC(=O)O)C(=O)N[C@H](C(=O)N[C@@H](CC(C)C)C(=O)N[C@H](C(=O)O)C(C)C)[C@@H](C)O)C(=O)[C@H](CCCNC(=N)N)NC(=O)[C@H](CCCNC(=N)N)NC(=O)[C@H](CCCNC(=N)N)NC(=O)[C@H](CCCNC(=N)N)NC(=O)[C@H](CCCNC(=N)N)NC(=O)[C@H](CCCNC(=N)N)NC(=O)[C@H](CCCNC(=N)N)NC(=O)CCC(=O)NCCOCCOCCCCCCCl)[C@@H](C)O)C(=O)N[C@H](C(=O)O)C(C)C` [Compound 68], the CP50 is reported as 0.58 ± 0.09 µM.
For `CC(C)C[C@H](NC(=O)[C@@H](NC(=O)[C@H](CCC(=O)O)NC(=O)[C@H](CCCCN)NC(=O)CCOCCOCCN(CCOCCOCCC(=O)N[C@@H](CCCCN)C(=O)N[C@@H](CCC(=O)O)C(=O)N[C@H](C(=O)N[C@@H](CC(C)C)C(=O)N[C@H](C(=O)O)C(C)C)[C@@H](C)O)C(=O)[C@H](CCCNC(=N)N)NC(=O)[C@H](CCCNC(=N)N)NC(=O)[C@H](CCCNC(=N)N)NC(=O)[C@H](CCCNC(=N)N)NC(=O)[C@H](CCCNC(=N)N)NC(=O)[C@H](CCCNC(=N)N)NC(=O)CCC(=O)NCCOCCOCCCCCCCl)[C@@H](C)O)C(=O)N[C@H](C(=O)O)C(C)C` [Compound 70], the CP50 was 0.51 ± 0.08 µM.
